{"source": "patent US10421749B2", "about": "“Pyrone derivatives for use as antiviral agents” (priority 2015, dated 2019)", "key": {"HepG2.2.15 cells": {"test_system": "HepG2.2.15 cells", "test": "Cell viability of HepG2.2.15 cells by cell titer blue assay", "format": "cell-based, human", "conditions": "three days treatment, 1 μM to 1 nM, compared to untreated control cells; FIG. 4A", "experimental": "(§1) The human hepatoma cell line HepG2.2.15, stably expressing HBV particles, was seeded in a 48 well format at a density of 5×10^4 the day before starting the treatment. Next day the cells were treated with 1 μM, 100 nM, 10 nM and 1 nM of Compound 1 with 3 independent biological replicates each. The cells were cultured in differentiation medium containing 1.8% DMSO, to slow down cell growth and enhance viral replication. Three days after treatment, cell viability (FIG. 4A) was determined by cell titer blue assay, cell supernatants were analyzed for HBeAg and newly released viral particles (FIGS. 4B and C) and finally cells were harvested to analyze for intracellular HBV DNA (FIG. 4D)."}, "HIV-1 [1]": {"test_system": "HIV-1", "test": "microbe, parasite or virus in culture", "conditions": "Human immunodeficiency virus 1, 48 h, read-out: EC50 with respect to HIV replication", "protocol": "(§2) LC5-RIC cells were seeded into 96-well plates (μCLEAR-Plate Black; Greiner Bio-One, Kremsmuenster, Germany), using only the 60 inner wells to avoid adverse effects caused by variations in the culture conditions in the outer wells. Cells were seeded at a density of 10^4 per well at 24 h prior to infection. Compounds were tested either at single concentrations or in serial dilutions, with each concentration assayed in triplicate. Compound solution (100 μl) followed by 20 μl of HIV inoculum (10^8 RNA copies/ml inoculum for KE37.1-derived HIV-1IIIB or 28.8 ng of p24 for HIV-1LAI derived from HEK 293T cells) was added to each well. To assay maximum infection (i.e., 100%), HIV inoculum was added to LC5-RIC cells incubated with compound-free medium. Controls for background expression consisted of LC5-RIC cells cultured in conditioned medium from KE37.1 (i.e., uninfected) cells. Plates were incubated for 48 h after virus addition, after which cultures were assayed for cellular reporter expression and for titers of infectious virus in supernatant fluids. Reporter expression was determined by measuring the total fluorescent signal intensity of each culture with a fluorescence microplate reader (Fluoroskan Ascent; ThermoFisher, Schwerte, Germany) at an excitation filter wavelength of 544 nm and an emission filter wavelength of 590 nm or with a Tecan infinite M200 (Tecan, Crailsheim, Germany) at the monochromator wavelengths 552 nm for excitation and 596 for emission. To quantify infectious virus titers, supernatant fluids (30 μl of HIV-1IIIB or 20 μl for HIV-1LAI) from cultures in the first plate were transferred to a second plate with uninfected LC5-RIC cells in exact replicate, and total fluorescent signal intensities of cultures in the second plate were measured 72 h after transfer.\n(§3) Curve fits and EC50 calculations were done with Prism, version 4 (GraphPad Software, La Jolla, Calif.), using the equation for sigmoidal dose response with variable slope with the following set constraint parameters: fixed top of 100 and fixed bottom of 0. As internal acceptance criteria, R^2 values had to be ≥0.9.\n(§4) To evaluate the inhibitory effects of the pyrone derivatives described herein, the EASY-HIT assay was used as disclosed in Kremp et al., supra. Briefly, a pyrone compound (or another test compound) was added to LC5-RIC cultures (or other uninfected cells, such as PBMCs) in microtiter plates, HIV preparations were added within 30 min of beginning treatment, and test cultures were incubated for 48 h after virus addition. Reference cultures were either exposed to the virus without test compound (maximum signal) or not exposed to the virus (minimum signal). Effects of test compounds on HIV infection of LC5-RIC cultures were determined in two steps. The first step quantified reporter expression by assaying fluorescent signal intensities of cells in test cultures. The second step quantified the infectious virus produced in test cultures by transferring aliquots of supernatants of test cultures to uninfected LC5-RIC cells (or other uninfected cells, such as PBMCs), followed by measurement of fluorescent signal intensities at 72 h after transfer. Cells evaluated for reporter expression were subjected to an MTT assay to detect deleterious effects of test compounds on cell viability under test conditions.\n(§5) Briefly, the test compound) was added to LC5-RIC cultures in microtiter plates. HIV-1 virus preparations were added within 30 min of beginning treatment with the text compound and test cultures were incubated for 48 h after virus addition. Reference cultures were either exposed to the virus without test compound (maximum signal) or not exposed to the virus (minimum signal)."}, "HIV": {"test_system": "HIV", "test": "Time-of-addition (TOA) assay in LC5-RIC cells", "format": "cell-based, HIV-1", "conditions": "FIG. 2", "experimental": "TOA assays were performed in 96-well plates using a standard assay setup with some modifications. HIV-1IIIB virus preparations were added to LC5-RIC cultures at time point 0. Anti-HIV compounds were added to the cultures at different time points after addition of virus preparations. Inhibitor concentrations were ≥2× EC50 in each well. At least 15 different time points were evaluated for each compound in at least three wells per time point. Cultures were incubated with virus for 48 h and subsequently analyzed for cellular reporter gene expression and/or infectious virus titers in culture supernatants.\nTo further characterize the inhibitory effects of Compound 1, HIV preparations were added to LC5-RIC cells at the time point 0. Compound 1 was added to the cultures at different time points after virus addition (i.e., p.i.). Plates were incubated for a total period of 48 h after virus addition, and cultures were assayed for HIV reporter expression (step 1) or for amounts of infectious virus in culture supernatants (step 2). Fluorescent signal intensities of treated cultures were related to those of cultures infected without inhibitors (set at 100% infection)."}, "LC5-RIC cells": {"test_system": "LC5-RIC cells", "test": "MTT cell viability assay of LC5-RIC test cultures", "format": "cell-based", "conditions": "concentration range tested 0 to 120 μM; FIG. 1C", "from_the_text": "Effects of compounds on cell viability wasy measured by MTT assay, Cell Titre Blue Assay and Cell Tox Green Assay. The MTT assay and the Cell Titre Blue Assay evaluate metabolic activity of cells, The Cell Tox Green assay measures cell death (i.e. loss of cell membrane integrity). The MTT assay measures the reduction of the yellow MTT to purple formazan by mitochondrial enzymes (Mosmann, T., J. Immunol. Methods 65 (1983), 55-63) Immediately following measurement of reporter expression, cultures were incubated with 100 μl of MTT solution (0.5 mg of MTT; Sigma, Taufkirchen, Germany) in 100 μl of culture medium for 2 h under standard culture conditions. MTT solution was carefully removed, and cells were lysed by addition of 100 μl of lysis solution (10% [wt/vol] SDS and 0.6% [vol/vol] acetic acid in dimethyl sulfoxide [DMSO]). The released MTT formazan crystals were dissolved by gentle agitation, and MTT formazan concentrations were determined by an ELISA plate reader (SmartSpec Plus; Bio-Rad, Muenchen, Germany) or Tecan Infinite M200 at a test wavelength of 570 nm and a reference wavelength of 630 nm. Values for treated HIV-infected cultures were related to those of untreated, HIV-infected cultures in the same plate. […]"}, "HBV": {"test_system": "HBV", "test": "HBV replication in HepG2.2.15 cells (HBeAg, released viral particles, intracellular HBV DNA)", "format": "cell-based", "conditions": "three days treatment, 1 μM to 1 nM", "experimental": "Antiviral effect of Compound 1 on HBV replication. A) After a three days treatment of HepG2.2.15 cells with Compound 1 in a concentration range from 1 μM to 1 nM, the cell viability was unchanged compared to untreated control cells.\nas §1"}, "[2]": {"test_system": "HIV-1 expression in HNSCLatGFP1.1 cells", "test": "Induced expression of latent HIV-1-gfp reporter virus in HNSCLatGFP1.1 cells (GFP, FACS)", "format": "cell-based, human", "conditions": "induction with TNF; 0.5, 5, 50 nM compound; FIG. 3A", "experimental": "A) Induction of expression of HIV-1 in HNSCLatGFP1.1 cells using TNF: 1: untreated (negative control); 2: TNF (positive control); 3: 0.5 nM Compound 1; 4: 5 nM Compound 1; 5: 50 nM Compound 1; 6: 0.5 nM Compound 1+TNF; 7: 5 nM Compound 1+TNF; 8: 50 nM Compound 1+TNF. B) Induction of expression of HIV-1 in HNSCLatGFP1.1 cells using TNF+SAHA: 1: mock; 2: TNF+SAHA; 3: 50 nM Compound 1; 4: TNF+SAHA+50 nM Compound 1. C) Induction of expression of HIV-1 in HNSCLatGFP1.1 cells using SAHA: 1: untreated (negative control); 2: SAHA (positive control); 3: 0.5 nM Compound 1; 4: 5 nM Compound 1; 5: 50 nM Compound 1; 6: 0.5 nM Compound 1+SAHA; 7: 5 nM Compound 1+SAHA; 8: 50 nM Compound 1+SAHA.\nTo further characterize the inhibitory effects of Compound 1, a further cell line (HNSCLatGFP1.1) was established into the genome of which the genome of a HIV-1-gfp reporter virus has been stably integrated.\nReference cultures were either untreated (minimum signal; lane 1 of FIG. 3A) or exposed to TNF (maximum signal; lane 2 of FIG. 3A). HNSCLatGFP1.1 cells were exposed to different concentrations of Compound 1 either alone (lanes 3 to 5 of FIG. 3A) or together with TNF (lanes 6 to 8 of FIG. 3A)."}, "HIV-1 [3]": {"test_system": "HIV-1", "conditions": "LC5-RIC cells; for inhibition of HIV-1 replication: 48 h, steps 1 and 2, FIG. 5; for inhibition of the late phase of HIV-1 replication: step 2 (supernatant transfer, 72 h), FIG. 6, FIG. 7", "protocol": "as §2, §3, §4, §5"}}, "note": "“Also recorded” adds a separate entry of the source."}
{"compound": "COc1oc([C@H]2C/C(=C/C(C)=C/c3ccc([N+](=O)[O-])cc3)CO2)c(C)c(=O)c1C", "note": "[Compound 1]", "values": [{"measurement": "cell viability of HepG2.2.15 cells", "setting": "HepG2.2.15 cells", "value": "unchanged; also recorded: without affecting cell viability"}, {"measurement": "EC50", "setting": "HIV-1 [1]", "value": 0.6, "unit": "nM"}, {"measurement": "time between infection and addition of compound at which HIV replication was still blocked", "setting": "HIV; LC5-RIC cells, 48 h total incubation", "value": 30, "unit": "h"}, {"measurement": "stage of HIV replication inhibited (time-of-addition)", "setting": "HIV; compound added at different time points after virus addition, 48 h total", "value": "inhibited the HIV replication at a very early stage"}, {"measurement": "toxic effect (MTT cell viability)", "setting": "LC5-RIC cells", "value": "did not exhibit any toxic effect"}, {"measurement": "IC50", "setting": "HBV; Hepatitis B virus, 72 h, n=3, read-out: IC50 of viral replication markers (HBeAg, released viral particles, intracellular HBV DNA)", "value": "2 to 20", "unit": "nM"}, {"measurement": "viral replication markers (HBeAg, newly released viral particles, intracellular HBV DNA)", "setting": "HBV; FIG. 4B-D", "value": "strongly reduced in a dose dependent fashion"}, {"measurement": "inhibition of virus production in HNSCLatGFP1.1 cells", "setting": "[2]", "value": "able to inhibit virus production in HNSCLatGFP1.1 cells in a dose dependent manner"}]}
{"compound": "COc1oc([C@H]2C/C(=C/C(C)=C/c3ccc(Cl)cc3)CO2)c(C)c(=O)c1C", "note": "[Compound 4]", "values": [{"measurement": "inhibition of HIV-1 replication", "setting": "HIV-1 [3]", "value": "inhibit HIV-1 replication"}]}
{"compound": "COc1oc([C@H]2C/C(=C/C(C)=C/c3cccc(Cl)c3)CO2)c(C)c(=O)c1C", "note": "[Compound 19]", "values": [{"measurement": "inhibition of HIV-1 replication", "setting": "HIV-1 [3]", "value": "inhibit HIV-1 replication"}]}
{"compound": "COc1oc([C@H]2C/C(=C/C(C)=C/c3ccc(F)cc3F)CO2)c(C)c(=O)c1C", "note": "[Compound 21]", "values": [{"measurement": "inhibition of the late phase of HIV-1 replication", "setting": "HIV-1 [3]", "value": "highest activities"}]}
{"compound": "COc1oc([C@H]2C/C(=C/C(C)=C/c3ccc(C(F)(F)F)cc3)CO2)c(C)c(=O)c1C", "note": "[Compound 22]", "values": [{"measurement": "inhibition of the late phase of HIV-1 replication", "setting": "HIV-1 [3]", "value": "highest activities"}]}
{"compound": "COc1ccc(/C=C(C)/C=C2\\CO[C@@H](c3oc(OC)c(C)c(=O)c3C)C2)cc1OC", "note": "[Compound 23]", "values": [{"measurement": "inhibition of the late phase of HIV-1 replication", "setting": "HIV-1 [3]", "value": "lowest activity"}]}
